Holding throughout (assay type): cell-based
One assay relates to HeLa (cervical cancer). Put plainly: Antiproliferative activity (CCK-8 cell viability), HeLa. The note with it: Homo sapiens, 72 h, read-out: Antiproliferative activity in cancerous cells, HELA (inhibition of cell growth); for inhibition at 3.3 µM: Compound concentration: 3.3 μM; for inhibition at 10 µM: Compound concentration: 10 μM. The method in brief:
(§1)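 Cells grown in DMEM (HepG2, SW480), MEM (HeLa) or F-12K (A549), each with 10% FBS, then exposed to compound at 3.3, 10 or 30 μM for 72 h at 37 °C. CCK-8 absorbance at 450 nm; viability expressed as percent of DMSO-treated cells, graded as growth inhibition bands.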

In assay [1] the test system is A549 (lung adenocarcinoma). Nature of the assay: Antiproliferative activity (CCK-8 cell viability), A549. The note with it: Homo sapiens, 72 h, read-out: Antiproliferative activity in cancerous cells, A549 (inhibition of cell growth); for inhibition at 3.3 µM: Compound concentration: 3.3 μM; for inhibition at 10 µM: Compound concentration: 10 μM. The method in brief: as §1

Assay [2] has as its system B16F10 (malignant melanoma). Nature of the assay: Antiproliferative activity (CCK-8 cell viability), B16F10. The note with it: Mus musculus, 72 h, read-out: Antiproliferative activity in cancerous cells, B16F10 (inhibition of cell growth); for inhibition at 3.3 µM: B16-F10, Compound concentration: 3.3 μM; for inhibition at 10 µM: B16-F10, Compound concentration: 10 μM. In a few lines:
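B16F10 melanoma cells grown in DMEM with 10% FBS were plated in 96-well plates at 2,000-5,000 cells/well. After attachment they were exposed to compound in medium for 72 h at 37° C. CCK-8 solution (10 μL) was then added, and after 4 h at 37° C absorbance was read at 450 nm.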

In assay [3] the test system is A431 (epidermoid carcinoma). Put plainly: Antiproliferative activity (CCK-8 cell viability), A431. The note with it: Homo sapiens, 72 h, read-out: Antiproliferative activity in cancerous cells, A431 (inhibition of cell growth); for inhibition at 3.3 µM: A-431, Compound concentration: 3.3 μM; for inhibition at 10 µM: A-431, Compound concentration: 10 μM. In a few lines:
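A431 epidermoid carcinoma cells grown in DMEM with 10% FBS were plated at 2,000-5,000 cells/well in 96-well plates. After attachment they were exposed to compound at 3.3 μM, 10 μM, or 30 μM for 72 h at 37° C. Viability was then assessed by CCK-8 against DMSO vehicle-treated wells.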

The subject of another assay is SW480 (colon cancer). Nature of the assay: Antiproliferative activity (CCK-8 cell viability), SW480. Conditions: Homo sapiens, 72 h, read-out: Antiproliferative activity in cancerous cells, SW480 (inhibition of cell growth); for inhibition at 3.3 µM: Compound concentration: 3.3 μM; for inhibition at 10 µM: Compound concentration: 10 μM. In a few lines:
as §1

Assay [4] concerns MDA-MB-231 (breast cancer). Put plainly: Antiproliferative activity (CCK-8 cell viability), MDA-MB-231. Conditions: Homo sapiens, 72 h, read-out: Antiproliferative activity in cancerous cells, MDA-MB-231 (inhibition of cell growth); for inhibition at 3.3 µM: Compound concentration: 3.3 μM; for inhibition at 10 µM: Compound concentration: 10 μM. The method in brief: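 MDA-MB-231 breast cancer cells, grown in DMEM with 10% FBS, were plated in 96-well plates at 2,000-5,000 cells/well. Once attached, they were exposed to compound and incubated at 37° C. for 72 h. Viability was then measured with CCK-8 (10 μL per well, 4 h at 37° C.) by absorbance at 450 nm, relative to DMSO vehicle wells.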

The next assay has as its system HepG2 (liver cancer). Put plainly: Antiproliferative activity (CCK-8 cell viability), HepG2. Conditions: Homo sapiens, 72 h, read-out: Antiproliferative activity in cancerous cells, HepG2 (inhibition of cell growth); for inhibition at 3.3 µM: Compound concentration: 3.3 μM; for inhibition at 10 µM: Compound concentration: 10 μM. The method in brief:
as §1

This passage reports inhibition results from patent publication US20260184663A1, “INDENE COMPOUNDS, PHARMACEUTICAL COMPOSITIONS THEREOF, AND THEIR THERAPEUTIC APPLICATIONS” (NucMito Pharmaceuticals co. Ltd., priority 2022, published 2026).

Where only a bound is given, the exact number is not on record here.

The inhibition is how much of the control response was suppressed. On to `CC1=C(CC(=O)O)c2cc(F)ccc2/C1=C\c1ccc(Oc2ccc(Cl)cc2C)cc1` [C55, (Z)-2-(1-(4-(4-Chloro-2-methylphenoxy)benzylidene)-5-fluoro-2-methyl-1H-inden-3-yl)acetic acid], for which the inhibition at 3.3 µM with HeLa (cervical cancer) is at least 50%; in assay [1], under 30%; in assay [2], at least 50%; in assay [3], 30 to 50%; in the assay with SW480 (colon cancer) it was under 30%; in assay [4], under 30%. Further, the inhibition at 3.3 µM in the assay with HepG2 (liver cancer) is under 30%. The inhibition at 10 µM in the assay with HeLa (cervical cancer) is at least 50%; in assay [1], under 30%; in assay [2], at least 50%; in assay [3], at least 50%; with SW480 (colon cancer), at least 50%; in assay [4] it was at least 50%. Further, in the assay with HepG2 (liver cancer), the inhibition at 10 µM is at least 50%.
As to `CC1=C(CC(=O)O)c2cc(F)ccc2/C1=C/c1cccc(COc2ccc(F)c(F)c2)c1` [E9, 2-[(1E)-1-({3-[(3,4-Difluorophenoxy)methyl]phenyl}methylidene)-5-fluoro-2-methyl-1H-inden-3-yl]acetic acid], the inhibition at 3.3 µM was under 30% with HeLa (cervical cancer); 30 to 50% in assay [1]; 30 to 50% in assay [2]; under 30% in assay [3]; at least 50% with SW480 (colon cancer); at least 50% in assay [4]. Besides, the inhibition at 3.3 µM in the assay on HepG2 (liver cancer) fell in the range of 30 to 50%. Further, the inhibition at 10 µM in the assay on HeLa (cervical cancer) is 30 to 50%; in assay [1], 30 to 50%; in assay [2], at least 50%; in assay [3], at least 50%; in the assay with SW480 (colon cancer) it was at least 50%; in assay [4] it was at least 50%. For the same compound, the inhibition at 10 µM in the assay on HepG2 (liver cancer) is at least 50%. Besides, the inhibition at 30 µM in the assay with HeLa (cervical cancer) (Compound concentration: 30 μM) is at least 50%; in assay [1] (Compound concentration: 30 μM), at least 50%; in assay [2] (B16-F10, Compound concentration: 30 μM) it was at least 50%; in assay [3] (A-431, Compound concentration: 30 μM) it was at least 50%; with SW480 (colon cancer) (Compound concentration: 30 μM), at least 50%; in assay [4] (Compound concentration: 30 μM) it was at least 50%. For the same compound, the inhibition at 30 µM in the assay on HepG2 (liver cancer) (Compound concentration: 30 μM) was at least 50%.
Consider `CC1=C(CC(=O)O)c2cc(I)ccc2/C1=C\c1ccc(COCc2ccc(F)cc2)cc1` [B109, (Z)-2-(1-(4-(((4-Fluorobenzyl)oxy)methyl)benzylidene)-5-iodo-2-methyl-1H-inden-3-yl)acetic acid], for which the inhibition at 3.3 µM was at least 50% in the assay on HeLa (cervical cancer); 30 to 50% in assay [1]; under 30% in assay [2]; under 30% in assay [3]; under 30% in the assay with SW480 (colon cancer); at least 50% in assay [4]. In addition, the inhibition at 3.3 µM in the assay on HepG2 (liver cancer) is under 30%. The inhibition at 10 µM (with HeLa (cervical cancer); in assay [1]; in assay [2]; in assay [3]; in the assay on SW480 (colon cancer); in assay [4]) was at least 50% in each case. Further, the inhibition at 10 µM in the assay on HepG2 (liver cancer) is at least 50%.
`COc1ccc2c(c1)C(CC(=O)O)=C(C)/C2=C/c1ccc(COCc2ccc(Cl)cc2)cc1` [B118, (Z)-2-(1-(4-(((4-Chlorobenzyl)oxy)methyl)benzylidene)-5-methoxy-2-methyl-1H-inden-3-yl)acetic acid]: the inhibition at 3.3 µM in the assay with HeLa (cervical cancer) was under 30%; in assay [1], 30 to 50%; in assay [2] it was at least 50%; in assay [3], at least 50%; in the assay on SW480 (colon cancer), at least 50%; in assay [4], under 30%. Moreover, the inhibition at 3.3 µM with HepG2 (liver cancer) was under 30%. Besides, the inhibition at 10 µM in the assay with HeLa (cervical cancer) was at least 50%; in assay [1], at least 50%; in assay [2] it was at least 50%; in assay [3] it was at least 50%; in the assay with SW480 (colon cancer) it was at least 50%; in assay [4], under 30%. Moreover, the inhibition at 10 µM in the assay on HepG2 (liver cancer) is at least 50%.
For `CC1=C(CC(=O)O)c2cc(Br)ccc2/C1=C\c1cccc(Oc2ccccc2)c1` [C110, (Z)-2-(5-Bromo-2-methyl-1-(3-phenoxybenzylidene)-1H-inden-3-yl)acetic acid], the inhibition at 3.3 µM is under 30% with HeLa (cervical cancer); under 30% in assay [1]; at least 50% in assay [2]; under 30% in assay [3]; under 30% in the assay on SW480 (colon cancer); under 30% in assay [4]. Further, in the assay with HepG2 (liver cancer), the inhibition at 3.3 µM is under 30%. Further, the inhibition at 10 µM with HeLa (cervical cancer) was at least 50%; in assay [1] it was at least 50%; in assay [2] it was at least 50%; in assay [3], at least 50%; with SW480 (colon cancer), 30 to 50%; in assay [4], at least 50%. Further, in the assay with HepG2 (liver cancer), the inhibition at 10 µM is at least 50%.
On to `COc1ccc(S(=O)(=O)c2ccc(/C=C3/C(C)=C(CC(=O)O)c4cc(F)ccc43)cc2)cc1` [C41, (Z)-2-(5-Fluoro-1-(4-((4-methoxyphenyl)sulfonyl)benzylidene)-2-methyl-1H-inden-3-yl)acetic acid], for which the inhibition at 3.3 µM with HeLa (cervical cancer) was under 30%; in assay [1], under 30%; in assay [2], 30 to 50%; in assay [3], 30 to 50%; in the assay on SW480 (colon cancer), under 30%; in assay [4] it was at least 50%. Further, the inhibition at 3.3 µM with HepG2 (liver cancer) is under 30%. Also, the inhibition at 10 µM (in the assay on HeLa (cervical cancer); in assay [1]; in assay [2]; in assay [3]; with SW480 (colon cancer); in assay [4]) was at least 50% each time. Also, the inhibition at 10 µM with HepG2 (liver cancer) was at least 50%.
`CC1=C(CC(=O)O)c2cc(Cl)ccc2/C1=C\c1ccc(COCc2ccc(Cl)cc2)cc1` [B115, (Z)-2-(5-Chloro-1-(4-(((4-chlorobenzyl)oxy)methyl)benzylidene)-2-methyl-1H-inden-3-yl)acetic acid]: the inhibition at 3.3 µM is under 30% with HeLa (cervical cancer); 30 to 50% in assay [1]; 30 to 50% in assay [2]; at least 50% in assay [3]; under 30% in the assay with SW480 (colon cancer); under 30% in assay [4]. The inhibition at 3.3 µM with HepG2 (liver cancer) was at least 50%. Further, the inhibition at 10 µM with HeLa (cervical cancer) was at least 50%; in assay [1], at least 50%; in assay [2] it was at least 50%; in assay [3], at least 50%; with SW480 (colon cancer), at least 50%; in assay [4], under 30%. Further, the inhibition at 10 µM with HepG2 (liver cancer) is at least 50%.
